pIC50: −log10 of the molar value. Calls of active or inactive are those of the source. No cut-off for these calls is given here.
Legend:
HeLa = experiment: Antiproliferative activity against human HeLa cells assessed as reduction in cell viability incubated for 72 hrs by MTT assay; type: functional, cell-based
K562 [1] = experiment: Induction of apoptosis in human K562 cells assessed as necrotic cells at 50 nM measured after 48 hrs by Annexin V-FITC/PI staining based flow cytometry method (reference value: 0.44%); type: functional
K562 [2] = experiment: Induction of apoptosis in human K562 cells assessed as late apoptotic cells at 25 nM measured after 48 hrs by Annexin V-FITC/PI staining based flow cytometry method (reference value: 3.53%); type: functional
K562 [3] = experiment: Induction of apoptosis in human K562 cells assessed as reduction in phosphorylated PI3K level measured after 48 hrs by Western blot analysis; type: functional, cell-based; details: dose 25-100 nM, DDE = dose-dependent effect
K562 [4] = experiment: Induction of apoptosis in human K562 cells assessed as necrotic cells at 100 nM measured after 48 hrs by Annexin V-FITC/PI staining based flow cytometry method (reference value: 0.44%); type: functional
K562 [5] = experiment: Induction of cell cycle arrest in human K562 cells assessed as downregulation of cyclin B1 measured after 48 hrs by Western blot analysis; type: functional, cell-based; details: dose 25-100 nM, DDE = dose-dependent effect
K562 [6] = experiment: Antiproliferative activity against human K562 cells assessed as reduction in cell viability incubated for 72 hrs by MTT assay; type: functional, cell-based; details: K562, 72 h
K562 [7] = experiment: Induction of apoptosis in human K562 cells assessed as increase in Bax level at 25 to 100 nM measured after 48 hrs by Western blot analysis; type: functional, cell-based; details: dose 25-100 nM
K562 [8] = experiment: Disruption of mitochondria in human K562 cells assessed as reduction of mitochondrial membrane potential measured after 48 hrs by JC-1 probe based fluorescence based assay; type: functional, cell-based; details: dose 25-100 nM, DDE = dose-dependent effect
K562 [9] = experiment: Induction of apoptosis in human K562 cells assessed as reduction in phosphorylated ERK level measured after 48 hrs by Western blot analysis; type: functional, cell-based; details: dose 25-100 nM, DDE = dose-dependent effect
K562 [10] = experiment: Induction of apoptosis in human K562 cells assessed as early apoptotic cells at 25 nM measured after 48 hrs by Annexin V-FITC/PI staining based flow cytometry method (reference value: 1.62%); type: functional
H22 = experiment: Antitumor activity against mouse H22 cells allografted in ICR mouse assessed as reduction in tumor weight at 10 mg/kg, iv administered once a day for 21 days after 7 days of tumor implantation; type: functional; design: scale not given: the % may be the effect or the level left; details: time 21 day
K562 [11] = experiment: Induction of cell cycle arrest in human K562 cells assessed as accumulation of cells at G2 phase at 25 nM measured after 48 hrs by propidium iodide staining-based flow cytometric analysis (reference value: 15.30%); type: functional
K562 [12] = experiment: Induction of cell cycle arrest in human K562 cells assessed as accumulation of cells at S phase at 25 nM measured after 48 hrs by propidium iodide staining-based flow cytometric analysis (reference value: 37.29%); type: functional
K562 [13] = experiment: Induction of apoptosis in human K562 cells assessed as reduction in phosphorylated mTOR level measured after 48 hrs by Western blot analysis; type: functional, cell-based; details: dose 25-100 nM, DDE = dose-dependent effect
K562 [14] = experiment: Inhibition of MAPK signaling pathway in human K562 cells assessed as reduction in MEK level measured after 48 hrs by Western blot analysis; type: cell-based; details: dose 25-100 nM, DDE = dose-dependent effect
[15] = Toxicity in ICR mouse allografted with mouse H22 cells assessed as effect on liver morphology at 10 to 20 mg/kg, iv administered once a day for 21 days after 7 days of tumor implantation by H and E staining method; type: organism-based; details: in vivo, 504 h, dose 10-20 mg/kg, time 21 day
K562 [16] = experiment: Induction of apoptosis in human K562 cells assessed as intracellular ROS generation measured after 48 hrs by DCFH-DA staining based flow cytometry method; type: functional, cell-based; details: dose 25-100 nM, DDE = dose-dependent effect
K562 [17] = experiment: Induction of cell cycle arrest in human K562 cells assessed as accumulation of cells at S phase at 50 nM measured after 48 hrs by propidium iodide staining-based flow cytometric analysis (reference value: 37.29%); type: functional
K562 [18] = experiment: Induction of cell cycle arrest in human K562 cells assessed as downregulation of cdc2 measured after 48 hrs by Western blot analysis; type: functional, cell-based; details: dose 25-100 nM, DDE = dose-dependent effect
K562 [19] = experiment: Induction of apoptosis in human K562 cells assessed as intracellular ROS generation at 100 uM measured after 48 hrs by DCFH-DA staining based flow cytometry method (reference value: 0.41%); type: functional
K562 [20] = experiment: Inhibition of MAPK signaling pathway in human K562 cells assessed as reduction in phosphorylated MEK measured after 48 hrs by Western blot analysis; type: cell-based; details: dose 25-100 nM, DDE = dose-dependent effect
K562 [21] = experiment: Induction of apoptosis in human K562 cells assessed as viable cells at 25 nM measured after 48 hrs by Annexin V-FITC/PI staining based flow cytometry method (reference value: 94.41%); type: functional; details: read-out: Activity
K562 [22] = experiment: Induction of apoptosis in human K562 cells assessed as reduction in phosphorylated Akt level measured after 48 hrs by Western blot analysis; type: functional, cell-based; details: dose 25-100 nM, DDE = dose-dependent effect

pIC50 (HeLa): 5.95
pIC50 (K562 [6]): 7.05
SMILES: C=C1C(=O)[C@]23[C@H](OC(=O)/C=C/c4ccncc4)[C@H]1CC[C@H]2[C@]12CCCC(C)(C)[C@H]1[C@H](O)[C@@]3(O)OC2
Activity (K562 [1]): 0.07%
Activity (K562 [2]): 6.87%
Activity (K562 [3]): Dde
Activity (K562 [4]): 3.25%
Activity (K562 [5]): Dde
Activity (K562 [7]): Active
Activity (K562 [8]): Dde
Activity (K562 [9]): Dde
Activity (K562 [10]): 10.6%
Activity (H22): 74.08%
Activity (K562 [11]): 22.14%
Activity (K562 [12]): 38.36%
Activity (K562 [13]): Dde
Activity (K562 [14]): Dde
Activity [15]: Non-Toxic
Activity (K562 [16]): Dde
Activity (K562 [17]): 36.52%
Activity (K562 [18]): Dde
Activity (K562 [19]): 63.43%
Activity (K562 [20]): Dde
viability at 0.025 µM (K562 [21]): 82.5%
Activity (K562 [22]): Dde

From ChEMBL document CHEMBL5154722, “Identification of new potent anticancer derivatives through simplifying the core structure and modification on their 14- hydroxyl group from oridonin” (Eur J Med Chem, 2022)
